Source: publication PMC6792352, “Limited Chemical Structural Diversity Found to Modulate Thyroid Hormone Receptor in the Tox21 Chemical Library” (Environmental Health Perspectives, 2019)
Where a name gives a salt, the structure may show the parent alone.

assay: in vitro; conditions: rat, gh3-tre-luc cells, AC50 (uM) modified / 1000

Structure (SMILES) | CC50 at 24 h [µM]
N#CC(C#N)=C(C#N)C#N [Tetracyanoethylene] | > 100
CCC(=O)OCC(=O)[C@@]1(OC(=O)CC)[C@H](C)C[C@H]2[C@@H]3CCC4=CC(=O)C=C[C@]4(C)[C@@]3(F)[C@@H](O)C[C@@]21C [Dexamethasone dipropionate] | > 50
OCC(O)CO [Glycerol] | > 90
CCCCNC(=S)NCCCC [N,N'-Dibutylthiourea] | > 90
Nc1ccc2cc3ccc(N)cc3nc2c1 [Proflavin hydrochloride] | > 90
COC(C)(C)CCO [3-Methoxy-3-methylbutan-1-ol] | > 90
C=C(C)CNCC [N-Ethyl-2-methylallylamine] | > 90
COCCCN [3-Methoxypropylamine] | > 90
Cc1ccc(C)c([N+](=O)[O-])c1 [1,4-Dimethyl-2-nitrobenzene] | > 90
COCCOCCOCCOCCOCCO [2,5,8,11,14-Pentaoxahexadecan-16-ol] | > 90
O=P(O)(O)C(O)(Cc1cnc2ccccn12)P(=O)(O)O [Minodronic acid] | > 50
CN/C(=N\[N+](=O)[O-])NCc1cnc(Cl)s1 [Clothianidin] | > 90
N[C@@H](Cc1ccc(O)cc1)C(=O)O [L-Tyrosine] | > 50
CCCCC(CC)COP(=O)(OCC(CC)CCCC)OCC(CC)CCCC (stereo not drawn) [Tris(2-ethylhexyl) phosphate] | > 90
CC(=O)[C@H]1[C@H](C#N)C[C@H]2[C@@H]3CC=C4C[C@@H](O)CC[C@]4(C)[C@H]3CC[C@@]21C [Pregnenolone carbonitrile] | > 60
Nc1nccs1 [2-Aminothiazole] | > 90
CCOc1ccccc1O [2-Ethoxyphenol] | > 90
CCCCCCCCC(CO)CCCCCC (stereo not drawn) [2-Hexyl-1-decanol] | > 90
CC(C)(C)C(=O)OCOC(=O)[C@@H]1N2C(=O)C[C@H]2S(=O)(=O)C1(C)C [Pivoxil Sulbactam] | > 50
CCCCCCCN(CC)CCCC(O)c1ccc(NS(C)(=O)=O)cc1 (stereo not drawn) [Ibutilide fumarate] | 21.5
C#CCC(Cc1cnc2nc(N)nc(N)c2n1)c1ccc(C(=O)N[C@@H](CCC(=O)O)C(=O)O)cc1 (stereo partly drawn) [Pralatrexate] | > 50
C=CCNC(N)=S [Allylthiourea] | > 90
Clc1ccc(C(Cl)(Cl)Cl)c(Cl)c1 [2,4-Dichloro-1-(trichloromethyl)benzene] | > 90
CNC[C@H](O)[C@@H](O)[C@H](O)[C@H](O)CO [Meglumine] | > 90
c1ccc(COCc2ccccc2)cc1 [Dibenzyl ether] | > 100
CN1CCC(=C2c3ccccc3C=Cc3ccccc32)CC1 [Cyproheptadine] | 12.2

Structure (SMILES) | CC50 at 24 h [µM]
CN/C(=N/CC1CCOC1)N[N+](=O)[O-] (stereo not drawn) [Dinotefuran] | > 90
O=C(Cl)c1ccc(F)c(Cl)c1 [3-Chloro-4-fluorobenzoyl chloride] | > 90
CCN(CC)CCOCCOC(=O)C(CC)(CC)c1ccccc1 [Oxeladin citrate] | 27.1
NCc1ccc(S(N)(=O)=O)cc1 [Mafenide hydrochloride] | > 20
CCOC(=O)C(C)Oc1ccc(Oc2cnc3cc(Cl)ccc3n2)cc1 (stereo not drawn) [Quizalofop-ethyl] | > 90
COC(=O)NN [Methyl carbazate] | > 90
CCN1CCOCC1 [N-Ethylmorpholine] | > 90
COc1ccc(C=O)cc1 [4-Methoxybenzaldehyde] | > 90
O=C(O)C(Cl)Cl [Dichloroacetic acid] | > 90
C=CC[C@@H]1/C=C(\C)C[C@H](C)C[C@H](OC)[C@H]2O[C@@](O)(C(=O)C(=O)N3CCCC[C@H]3C(=O)O[C@H](/C(C)=C/[C@@H]3CC[C@@H](O)[C@H](OC)C3)[C@H](C)[C@@H](O)CC1=O)[C@H](C)C[C@@H]2OC [Tacrolimus] | > 50
C/C=C/C=C/CO [(2E,4E)-Hexa-2,4-dien-1-ol] | > 90
O=C[C@H](O)[C@H]1OC(=O)[C@@H](O)[C@H]1O [D-Glucuronolactone] | > 90
CC(C)(CCl)c1ccccc1 [Neophyl chloride] | > 90
CC(=O)Nc1ccc(OC(C)=O)cc1 [Diacetamate] | > 50
CNC(=S)N(C)C [1,1,3-Trimethyl-2-thiourea] | > 90
ClC1C(Cl)C(Cl)C(Cl)C(Cl)C1Cl (stereo not drawn) [alpha-1,2,3,4,5,6-Hexachlorocyclohexane] | > 90
O=C(O)c1ccc2cc(O)ccc2c1 [6-Hydroxy-2-naphthoic acid] | > 90
Cc1cc(C)c(O)c(C)c1 [2,4,6-Trimethylphenol] | > 90
CC1C(C)(C)C2=C(C(=O)CCC2)C1(C)C (stereo not drawn) [Dihydro-1,1,2,3,3-pentamethyl-4(5H)-indanone] | > 90
O=NN(CCCl)C(=O)NCCCl [Carmustine] | > 50
CCC(CC)Nc1ccc(C)c(C)c1 [N-(1-Ethylpropyl)-3,4-xylidine] | > 90
CC(C)(C)CC(=O)OCC(=O)[C@@]12OC(C)(C)O[C@@H]1C[C@H]1[C@@H]3CCC4=CC(=O)C=C[C@]4(C)[C@@]3(F)[C@@H](O)C[C@@]12C [Triamcinolone hexacetonide] | > 50
O=C=Nc1cccc(C(F)(F)F)c1 [3-(Trifluoromethyl)phenyl isocyanate] | 49
CCCCCCCCCCCCCCNCCO [Myralact] | > 50
CCCCCCCCCCCC(=O)OC[C@@H](O)[C@H]1OC[C@H](O)[C@H]1O [Sorbitan monododecanoate] | > 50
CC(=O)CCc1ccc(OC(C)=O)cc1 [4-(4-(Acetyloxy)phenyl)-2-butanone] | > 90

Structure (SMILES) | CC50 at 24 h [µM]
NS(=O)(=O)c1ccccc1OC(F)(F)F [2-(Trifluoromethoxy)benzenesulfonamide] | > 90
CN(C)c1ccc(CCO)cc1 [p-N,N-Dimethylaminophenethanol] | > 90
CN(C)/N=N/c1[nH]cnc1C(N)=O [Dacarbazine] | > 90
Cc1cc(O)c(C(=O)N[C@@H](C(=O)N[C@@H]2C(=O)N3C(C(=O)O)=C(CSc4nnnn4C)CS[C@H]23)c2ccc(O)cc2)cn1 [Cefpiramide acid] | > 50
CCC(O)c1ccccc1 (stereo not drawn) [1-Phenyl-1-propanol] | > 50
Oc1c(Br)c(Br)c(Br)c(Br)c1Br [Pentabromophenol] | 33.5
CN(C(=O)c1c(O)c2ccccc2n(C)c1=O)c1ccccc1 [Roquinimex] | > 50
CC(=O)C1(C)CC2=C(CCCC2(C)C)CC1C (stereo not drawn) [Isocyclemone E] | > 90
NP(N)(=O)NC(=O)c1ccc(F)cc1 [Flurofamide] | > 50
Nc1ncn([C@H]2C[C@H](O)[C@@H](CO)O2)c(=O)n1 [Decitabine] | > 50
NC(=O)Oc1ccc(Cc2ccccc2)cc1 [Diphenan] | > 50
Cc1cc(C(C)(C)C)c(O)c(C)c1Cn1c(=O)n(Cc2c(C)cc(C(C)(C)C)c(O)c2C)c(=O)n(Cc2c(C)cc(C(C)(C)C)c(O)c2C)c1=O [Cyanox CY 1790] | > 90
COc1c(N2CCNC(C)C2)c(F)cc2c(=O)c(C(=O)O)cn(C3CC3)c12 (stereo not drawn) [Gatifloxacin] | > 50
CC(C)c1cc(C(C)C)cc(C(C)C)c1 [1,3,5-Triisopropylbenzene] | > 90
CC(=O)C(=O)CC(C)C [5-Methyl-2,3-hexanedione] | > 90
CC(Cc1cccc(C(F)(F)F)c1)NCCOC(=O)c1ccccc1 (stereo not drawn) [Benfluorex hydrochloride] | 27.3
CCCCC(CC)C(=O)OCCOCCOCCOC(=O)C(CC)CCCC (stereo not drawn) [Triethylene glycol bis(2-ethylhexanoate)] | > 90
O=S(=O)(O)CCO [Sodium 2-hydroxyethanesulfonate] | > 90
C=CCOCC(O)CCl (stereo not drawn) [Allyl 3-chloro-2-hydroxypropyl ether] | > 90
CCc1c(C)[nH]c2c1C(=O)C(CN1CCOCC1)CC2 (stereo not drawn) [Molindone hydrochloride] | > 20
CSc1ccc(C(=O)c2[nH]c(=O)[nH]c2C)cc1 [Enoximone] | > 50
CCOC(=O)COc1ccc2c(c1)C[C@@H](NC[C@H](O)c1cccc(Cl)c1)CC2 [SR58611] | 24.3
CCOC(=O)Cn1c(=O)sc2cccc(Cl)c21 [Benazolin-ethyl] | > 90
CN(C)CCc1c[nH]c2cccc(O)c12 [Psilocin] | > 90

same assay, conditions: rat, gh3-tre-luc cells, AC50 (uM) modified / 1000, Tox21_110001=Tox21_111893; viability, 1 nM T3 present, 24 h

Structure (SMILES) | CC50 at 24 h [µM]
O=C1c2ccccc2C(=O)C1C(=O)C(c1ccccc1)c1ccccc1 [Diphacinone] | > 50

same assay, conditions: rat, gh3-tre-luc cells, AC50 (uM) modified / 1000, Tox21_110001=Tox21_200102; viability, 1 nM T3 present, 24 h

Structure (SMILES) | CC50 at 24 h [µM]
BrCCc1ccccc1 [Phenethyl bromide] | > 90

same assay, conditions: rat, gh3-tre-luc cells, AC50 (uM) modified / 1000, Tox21_110001=Tox21_200953; viability, 1 nM T3 present, 24 h

Structure (SMILES) | CC50 at 24 h [µM]
O=[N+]([O-])c1cccc2c([N+](=O)[O-])cccc12 [1,5-Dinitronaphthalene] | > 90

same assay, conditions: rat, gh3-tre-luc cells, AC50 (uM) modified / 1000, Tox21_110001=Tox21_201505; viability, 1 nM T3 present, 24 h

Structure (SMILES) | CC50 at 24 h [µM]
C1CC2OC2CC1C1CO1 (stereo not drawn) [4-Vinyl-1-cyclohexene dioxide] | > 90

same assay, conditions: rat, gh3-tre-luc cells, AC50 (uM) modified / 1000, Tox21_110001=Tox21_202028; viability, 1 nM T3 present, 24 h

Structure (SMILES) | CC50 at 24 h [µM]
CCOP(=S)(OCC)Oc1cnc2ccccc2n1 [Quinalphos] | > 90

same assay, conditions: rat, gh3-tre-luc cells, AC50 (uM) modified / 1000, Tox21_110001=Tox21_202045; viability, 1 nM T3 present, 24 h

Structure (SMILES) | CC50 at 24 h [µM]
c1ccc2c(c1)Oc1ccccc1O2 [Dibenzo-p-dioxin] | > 90

same assay, conditions: rat, gh3-tre-luc cells, AC50 (uM) modified / 1000, Tox21_110001=Tox21_301429; viability, 1 nM T3 present, 24 h

Structure (SMILES) | CC50 at 24 h [µM]
ClC1=C(Cl)[C@]2(Cl)[C@H]3[C@H]([C@H]4C=C[C@@H]3C4)[C@@]1(Cl)C2(Cl)Cl [Isodrin] | 66.4

same assay, conditions: rat, gh3-tre-luc cells, AC50 (uM) modified / 1000, Tox21_110001=Tox21_303401; viability, 1 nM T3 present, 24 h

Structure (SMILES) | CC50 at 24 h [µM]
O=P(O)(Oc1ccccc1)Oc1ccccc1 [Diphenyl phosphate] | > 90
